Test results: US10077261B2, “Imidazolin-5-one derivative useful as FASN inhibitors for the treatment of cancer” (Janssen Pharmaceutica NV, priority 2012, dated 2018)

Legend:
[1] = target: Fatty Acid Synthase Keto-reductase Domain (FASN KR) (Homo sapiens, UniProt P49327); test: Fatty Acid Synthase keto-reductase domain (FASN KR) inhibition, NADPH oxidation at 340 nm
Description: After 20 minutes incubation at room temperature the plate was measured again (T2).
The decrease in absorbance was calculated as (Absorbance before incubation T1)−(Absorbance following incubation T2).
A plot of Controlmin versus test compound concentration was fitted to a 4-parameter logistic curve using a non-linear least squares regression method.

[2] = system: A2780 ovarian cells; test: A2780 ovarian cell proliferation assay in lipid reduced medium, without palmitate (MTT); format: cell-based; conditions: Homo sapiens, A2780, 96 h; read-out: pIC50 A2780 Ovarian Cell, Without Palmitate (converted)
[3] = system: A2780 ovarian cells; test: A2780 ovarian cell proliferation assay in lipid reduced medium, with palmitate (MTT); format: cell-based; conditions: Homo sapiens, A2780, 96 h; read-out: pIC50 A2780 Ovarian Cell, With Palmitate (converted)
Summary of the method: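 In this palmitate-supplemented format, compound dilutions (30 μM down to 0.01 μM) are added to cells in lipid-reduced serum with 25 μM palmitate, 0.2% fatty-acid-free BSA and 0.25% ethanol. After four days (96 h) MTT absorbance at 544 nm is recorded and fitted by minimum sum of squares.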

[4] = system: LNCaP-Vancouver prostate cells; test: In vitro LNCaP Vancouver prostate cell proliferation assay in lipid reduced medium; format: cell-based; conditions: read-out: pIC50 LNCaP_Vancouver prostate cell (converted)
[5] = target: T1, hFASN enzyme (full length) (Homo sapiens, UniProt P49327); test: Fatty Acid Synthase (FASN) inhibition scintillation proximity assay; format: biochemical; conditions: for inhibition at 10 µM: read-out: Human FASN % inhibition @ 10 μM, 10 μM test compound; for IC50: read-out: Human FASN pIC50 (converted)
T1 construct: 10 μL hFASN enzyme (full length, 300 ng, purified in house); made in house
Summary of the method: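 Scintillation proximity format: in-house full-length enzyme, 300 ng per well, pH 7.5 phosphate/DTT buffer, ³H-acetyl-CoA and malonyl-CoA. Emission counted on LEADseeker at 610 nm at least 24 h after stopping.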

[6] = system: PC-3M-Luc-C6 prostate cells; test: In vitro PC-3M-Luc-C6 prostate cell proliferation assay in lipid reduced medium; format: cell-based; conditions: 96 h, read-out: pIC50 PC-3M-Luc-C6 prostate cell (converted)

Fatty Acid Synthase Keto-reductase Domain (FASN KR), sequence (P49327 whole entry, the tested form may be a part): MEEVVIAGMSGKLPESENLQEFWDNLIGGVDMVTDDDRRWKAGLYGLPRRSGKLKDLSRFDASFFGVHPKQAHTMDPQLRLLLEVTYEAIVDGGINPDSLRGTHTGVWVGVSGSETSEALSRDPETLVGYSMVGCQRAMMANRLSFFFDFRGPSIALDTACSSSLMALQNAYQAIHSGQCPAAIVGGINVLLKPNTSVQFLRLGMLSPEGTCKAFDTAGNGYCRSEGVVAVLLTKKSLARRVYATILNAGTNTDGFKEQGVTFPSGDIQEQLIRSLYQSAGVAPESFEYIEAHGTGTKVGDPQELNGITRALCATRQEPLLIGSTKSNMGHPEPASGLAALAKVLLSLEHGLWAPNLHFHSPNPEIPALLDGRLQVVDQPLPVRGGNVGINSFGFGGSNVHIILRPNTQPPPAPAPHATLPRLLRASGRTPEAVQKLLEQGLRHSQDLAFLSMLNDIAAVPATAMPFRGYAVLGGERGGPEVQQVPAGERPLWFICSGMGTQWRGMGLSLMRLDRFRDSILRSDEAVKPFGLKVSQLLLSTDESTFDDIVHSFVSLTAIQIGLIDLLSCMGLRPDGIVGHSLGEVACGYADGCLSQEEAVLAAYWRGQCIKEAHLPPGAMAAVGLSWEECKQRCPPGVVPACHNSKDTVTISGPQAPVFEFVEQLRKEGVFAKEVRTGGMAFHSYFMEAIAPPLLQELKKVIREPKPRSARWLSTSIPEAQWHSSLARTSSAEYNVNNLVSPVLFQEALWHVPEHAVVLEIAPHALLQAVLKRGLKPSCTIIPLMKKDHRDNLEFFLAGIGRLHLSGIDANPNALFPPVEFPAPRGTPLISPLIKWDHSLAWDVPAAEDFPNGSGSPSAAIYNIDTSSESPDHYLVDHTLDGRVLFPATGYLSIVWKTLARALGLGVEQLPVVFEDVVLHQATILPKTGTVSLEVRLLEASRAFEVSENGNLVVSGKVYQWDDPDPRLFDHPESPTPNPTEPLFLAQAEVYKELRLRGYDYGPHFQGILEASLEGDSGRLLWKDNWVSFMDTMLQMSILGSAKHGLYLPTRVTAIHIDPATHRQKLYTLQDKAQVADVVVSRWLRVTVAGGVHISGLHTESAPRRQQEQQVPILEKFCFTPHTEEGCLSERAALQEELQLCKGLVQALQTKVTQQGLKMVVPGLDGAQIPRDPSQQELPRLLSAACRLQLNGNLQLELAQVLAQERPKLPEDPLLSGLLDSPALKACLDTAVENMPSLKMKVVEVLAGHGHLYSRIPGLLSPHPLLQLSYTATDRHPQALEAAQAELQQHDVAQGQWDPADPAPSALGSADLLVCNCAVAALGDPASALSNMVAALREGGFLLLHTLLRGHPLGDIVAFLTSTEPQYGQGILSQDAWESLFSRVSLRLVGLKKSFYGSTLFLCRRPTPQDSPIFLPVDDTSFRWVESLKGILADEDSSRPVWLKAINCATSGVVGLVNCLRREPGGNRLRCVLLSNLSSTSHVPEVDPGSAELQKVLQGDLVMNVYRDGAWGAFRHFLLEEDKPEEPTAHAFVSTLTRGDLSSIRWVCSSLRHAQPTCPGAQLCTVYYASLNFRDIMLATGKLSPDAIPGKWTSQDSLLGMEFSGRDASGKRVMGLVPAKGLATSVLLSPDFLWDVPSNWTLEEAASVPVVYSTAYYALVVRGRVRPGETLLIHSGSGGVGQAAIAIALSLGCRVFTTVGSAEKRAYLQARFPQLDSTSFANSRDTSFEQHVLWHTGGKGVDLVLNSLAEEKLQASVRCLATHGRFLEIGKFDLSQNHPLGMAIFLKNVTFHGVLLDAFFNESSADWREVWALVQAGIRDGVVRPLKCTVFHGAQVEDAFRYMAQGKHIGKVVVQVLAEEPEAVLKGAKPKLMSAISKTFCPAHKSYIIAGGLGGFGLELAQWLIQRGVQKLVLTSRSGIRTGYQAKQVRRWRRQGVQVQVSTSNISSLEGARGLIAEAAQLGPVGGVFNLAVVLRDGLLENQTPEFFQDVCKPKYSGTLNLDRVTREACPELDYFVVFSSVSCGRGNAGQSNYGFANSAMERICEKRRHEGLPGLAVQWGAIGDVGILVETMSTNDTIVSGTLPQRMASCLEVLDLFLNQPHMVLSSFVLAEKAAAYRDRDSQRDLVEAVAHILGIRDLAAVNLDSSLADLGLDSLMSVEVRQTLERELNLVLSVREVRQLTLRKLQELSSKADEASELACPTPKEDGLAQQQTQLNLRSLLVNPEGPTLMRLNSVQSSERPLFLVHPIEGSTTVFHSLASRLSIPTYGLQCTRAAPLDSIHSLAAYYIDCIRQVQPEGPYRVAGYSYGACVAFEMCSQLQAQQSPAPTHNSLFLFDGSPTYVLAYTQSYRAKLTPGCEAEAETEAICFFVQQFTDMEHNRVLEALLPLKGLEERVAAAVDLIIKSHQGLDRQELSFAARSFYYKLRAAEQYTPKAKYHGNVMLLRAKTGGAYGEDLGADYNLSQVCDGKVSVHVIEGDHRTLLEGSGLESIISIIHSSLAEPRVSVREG
T1 sequence (P49327 whole entry): as the sequence (P49327 whole entry, the tested form may be a part) above

Row | SMILES | IC50 [1] | IC50 [2] | IC50 [3] | IC50 [4] | inhibition at 10 µM [5] | IC50 [5] | IC50 [6]
1 | COc1cc2cc(-c3ccc(C4=NC5(CC5)C(=O)N4C[C@@H]4CCN(C(=O)C5CC5)C4)cc3)ccc2cn1 [compound 470, 6-{[(3R)-1-(Cyclopropylcarbonyl)pyrrolidin-3-yl]methyl}-5-[4-(3-methoxyisoquinolin-6-yl)phenyl]-4,6-diazaspiro[2.4]hept-4-en-7-one] | 115 nM | ~933 nM | > 10000 nM | 1480 nM | 98% | 182 nM | ~631 nM
2 | O=C(C1CC1)N1CC[C@@H](CN2C(=O)C3(CC3)N=C2c2ccc(-c3ccc4cccc(F)c4c3)cc2)C1 [compound 313, (R)-6-((1-(cyclopropanecarbonyl)pyrrolidin-3-yl)methyl)-5-(4-(8-fluoronaphthalen-2-yl)phenyl)-4,6-diazaspiro[2.4]hept-4-en-7-one] | 52.5 nM | 53.7 nM | 8710 nM | 155 nM | 99% | 38.9 nM | ~52.5 nM
3 | Cc1ccc2cc(-c3ccc(C4=NC5(CC5)C(=O)N4CC4CN(C(=O)C5(C)CC5)C4)c(C)c3)ccc2c1 [compound 334, 5-(2-methyl-4-(6-methylnaphthalen-2-yl)phenyl)-6-((1-(1-methylcyclopropanecarbonyl)azetidin-3-yl)methyl)-4,6-diazaspiro[2.4]hept-4-en-7-one] | 43.7 nM | 24 nM | 6920 nM | 162 nM | 97% | 21.9 nM | 37.2 nM
4 | N#Cc1ccc2cc(-c3ccc(C4=NC5(CC5)C(=O)N4CC4CN(C(=O)C5(F)CC5)C4)c(F)c3)ccc2c1 [compound 225, 6-(3-fluoro-4-(6-((1-(1-fluorocyclopropanecarbonyl)azetidin-3-yl)methyl)-7-oxo-4,6-diazaspiro[2.4]hept-4-en-5-yl)phenyl)-2-naphthonitrile] | 74.1 nM | 25.1 nM | 5250 nM | 158 nM | 95% | 38 nM | 26.9 nM
5 | Cc1cc(-c2ccc3ccc(C(N)=O)nc3c2)ccc1C1=NC2(CC2)C(=O)N1CC1CN(C(=O)C2(C)CC2)C1 [compound 579, 7-{3-Methyl-4-[6-({1-[(1-methylcyclopropyl)carbonyl]azetidin-3-yl}methyl)-7-oxo-4,6-diazaspiro[2.4]hept-4-en-5-yl]phenyl}quinoline-2-carboxamide] | 4570 nM | 1100 nM | > 10000 nM | 4570 nM | 83% | 1100 nM | 2000 nM
6 | Cc1cc2cc(-c3ccc(C4=NC5(CC5)C(=O)N4C[C@@H]4CCN(C(=O)C5CC5)C4)c(F)c3)ccc2[nH]1 [compound 319, (R)-6-((1-(cyclopropanecarbonyl)pyrrolidin-3-yl)methyl)-5-(2-fluoro-4-(2-methyl-1H-indol-5-yl)phenyl)-4,6-diazaspiro[2.4]hept-4-en-7-one] | 53.7 nM | ~13.5 nM | > 10000 nM | 112 nM | 105% | 28.8 nM | 18.6 nM
7 | Cc1cc(-c2ccc(-c3cnn(C4CC4)c3)cc2)ccc1C1=NC2(CC2)C(=O)N1CC1CN(C(=O)C2CC2)C1 [compound 326, 6-((1-(cyclopropanecarbonyl)azetidin-3-yl)methyl)-5-(4′-(1-cyclopropyl-1H-pyrazol-4-yl)-3-methyl-[1,1′-biphenyl]-4-yl)-4,6-diazaspiro[2.4]hept-4-en-7-one] | 407 nM | ~12 nM | 9120 nM | 170 nM | 103% | 39.8 nM | 49 nM
8 | O=C(C1CC1)N1CC[C@@H](CN2C(=O)C3(CC3)N=C2c2ccc(-c3ccc4cccc(F)c4c3)cc2F)C1 [compound 260, (R)-6-((1-(cyclopropanecarbonyl)pyrrolidin-3-yl)methyl)-5-(2-fluoro-4-(8-fluoronaphthalen-2-yl)phenyl)-4,6-diazaspiro[2.4]hept-4-en-7-one] | 37.2 nM | ~70.8 nM | > 10000 nM | 85.1 nM | 101% | 16.2 nM | 37.2 nM
9 | Cn1ncc2cc(-c3ccc(C4=NC5(CC5)C(=O)N4C[C@@H]4CCN(C(=O)C5(C)CC5)C4)cc3)ccc21 [compound 201, (R)-5-(4-(1-methyl-1H-indazol-5-yl)phenyl)-6-((1-(1-methylcyclopropanecarbonyl)pyrrolidin-3-yl)methyl)-4,6-diazaspiro[2.4]hept-4-en-7-one] | 33.9 nM | ~4.37 nM | ~3470 nM | 20.9 nM | 100% | 43.7 nM | ~6.61 nM
10 | O=C(C1CC1)N1CC(CN2C(=O)C3(CC3)N=C2c2ccc(-c3nc4cc(F)ccc4s3)cc2F)C1 [compound 638, 6-{[1-(Cyclopropylcarbonyl)azetidin-3-yl]methyl}-5-[2-fluoro-4-(5-fluoro-1,3-benzothiazol-2-yl)phenyl]-4,6-diazaspiro[2.4]hept-4-en-7-one] | 1000 nM | ~195 nM | > 10000 nM | 1700 nM | 100% | 191 nM | 479 nM
11 | O=C(C1CC1)N1CC(CN2C(=O)C3(CC3)N=C2c2ccc(-c3ccc(-c4cnn(C5CC5)c4)cc3)cc2F)C1 [compound 328, 6-((1-(cyclopropanecarbonyl)azetidin-3-yl)methyl)-5-(4′-(1-cyclopropyl-1H-pyrazol-4-yl)-3-fluoro-[1,1′-biphenyl]-4-yl)-4,6-diazaspiro[2.4]hept-4-en-7-one] | 79.4 nM | 5.13 nM | 10000 nM | 53.7 nM | 98% | 31.6 nM | 16.2 nM
12 | CC(C)n1cc(-c2ccc(-c3ccc(C4=NC5(CC5)C(=O)N4CC4CN(C(=O)C5CC5)C4)c(F)c3)cc2)cn1 [compound 327, 6-((1-(cyclopropanecarbonyl)azetidin-3-yl)methyl)-5-(3-fluoro-4′-(1-isopropyl-1H-pyrazol-4-yl)-[1,1′-biphenyl]-4-yl)-4,6-diazaspiro[2.4]hept-4-en-7-one] | 158 nM | 10.5 nM | 8130 nM | 138 nM | 104% | 32.4 nM | 34.7 nM
13 | O=C(C1CC1)N1CC[C@@H](CN2C(=O)C3(CC3)N=C2c2ccc(-c3ccc4[nH]ncc4c3)cc2F)C1 [compound 253, (R)-6-((1-(cyclopropanecarbonyl)pyrrolidin-3-yl)methyl)-5-(2-fluoro-4-(1H-indazol-5-yl)phenyl)-4,6-diazaspiro[2.4]hept-4-en-7-one] | 27.5 nM | 12 nM | > 10000 nM | 64.6 nM | 97% | 35.5 nM | 14.1 nM
14 | Cn1cc(-c2ccc(-c3ccc(C4=NC5(CC5)C(=O)N4C[C@@H]4CCN(C(=O)C5(O)CC5)C4)c(F)c3)cc2)cn1 [compound 379, (R)-5-(3-fluoro-4′-(1-methyl-1H-pyrazol-4-yl)-[1,1′-biphenyl]-4-yl)-6-((1-(1-hydroxycyclopropanecarbonyl)pyrrolidin-3-yl)methyl)-4,6-diazaspiro[2.4]hept-4-en-7-one] | 27.5 nM | ~1.07 nM | > 10000 nM | 5.01 nM | 102% | 20 nM | ~2.45 nM
15 | Cc1cc(-c2cccc3nn(C)cc23)ccc1C1=NC2(CC2)C(=O)N1CC1CN(C(=O)C2(C)CC2)C1 [compound 598, 6-({1-[(1-Methylcyclopropyl)carbonyl]azetidin-3-yl}methyl)-5-[2-methyl-4-(2-methyl-2H-indazol-4-yl)phenyl]-4,6-diazaspiro[2.4]hept-4-en-7-one] | 309 nM | 200 nM | > 10000 nM | 2340 nM | 103% | 209 nM | ~355 nM
16 | O=C(C1CC1)N1CC[C@@H](CN2C(=O)C3(CC3)N=C2c2ccc(-c3nc4ccccc4o3)cc2)C1 [compound 307, (R)-5-(4-(benzo[d]oxazol-2-yl)phenyl)-6-((1-(cyclopropanecarbonyl)pyrrolidin-3-yl)methyl)-4,6-diazaspiro[2.4]hept-4-en-7-one] | 145 nM | 91.2 nM | > 10000 nM | 661 nM | 100% | 67.6 nM | 102 nM
17 | O=C(C1CC1)N1CC[C@@H](CN2C(=O)C3(CC3)N=C2c2ccc(-c3ccc4c(c3)CCO4)cc2)C1 [compound 462, 6-{[(3R)-1-(Cyclopropylcarbonyl)pyrrolidin-3-yl]methyl}-5-[4-(2,3-dihydro-1-benzofuran-5-yl)phenyl]-4,6-diazaspiro[2.4]hept-4-en-7-one] | 912 nM | 1860 nM | > 10000 nM | 2340 nM | 98% | 158 nM | 1170 nM
